What all share (test): NCI tumour cell line growth inhibition, 48 h
For experiment [1], the system named is HCC-2998 colon.
For experiment [2], the system named is K-562 leukemia.
Experiment [3] relates to UO-31 renal.
Experiment [4] concerns T-47D breast.
Experiment [5] relates to MDA-MB-435.
Experiment [6] has as its system M14 melanoma.
The test system of experiment [7] is MALME-3M melanoma.
Experiment [8] has as its system UACC-62 melanoma.
Experiment [9] deals with NCI-H226 lung.
Experiment [10] relates to A549 NSCLC.
The subject of experiment [11] is MCF7 breast.
In experiment [12] the test system is ACHN renal.
In experiment [13] the test system is HOP-62 NSCLC.
Experiment [14] deals with NCI-H460 lung.
The test system of experiment [15] is CCRF-CEM leukemia.
Experiment [16] relates to HT29 colon.
Experiment [17] concerns IGROV1 ovarian.
Experiment [18] deals with EKVX NSCLC.
Experiment [19] concerns SW-620 colon.
In experiment [20] the test system is A498 renal.

The text below walks through data of PubChem BioAssay (NCI).

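In this assay, cells in 96-well plates receive the compound at five concentrations for 48 hours. Endpoints are linearly interpolated between the surrounding concentrations. TGI: total growth inhibition.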 Where a SMILES comes first, the peptide text is derived from it. [ ]: non-standard residue; d: D form. The star is where a group is joined. ξ: configuration not given here. ξPhe(4-NO2) = NC(Cc1ccc([N+](=O)[O-])cc1)C(=O)O; Boc = CC(C)(C)OC(=O)*; OBn = c1ccc(CO*)cc1 Some results are limits rather than exact numbers.

Take `CC(NC(=O)/C(C#N)=C/c1ccc2[nH]ccc2c1)c1ccccc1` (stereo not given): the TGI in [1] was 34 µM; in [2], more than 77.9 µM; in [3], 28.3 µM; in [4], 51 µM; in experiment [5], 31.1 µM; in experiment [6], 37.2 µM. For the same compound, the TGI in experiment [7] is 71.2 µM; in experiment [8], 31.8 µM; in experiment [9], 53.8 µM; in experiment [10], 55.4 µM; in experiment [11], 56 µM; in experiment [12], more than 64.9 µM. Moreover, the TGI came out at 33.4 µM in experiment [13]; 34.9 µM in experiment [14]; 45.8 µM in [15]; 31.6 µM in [16]; 33.1 µM in [17]; 50.4 µM in experiment [18]. Moreover, the TGI came out at 33 µM in experiment [19] and 32.1 µM in [20].

Take `COc1cc(/C=C2/SC(c3ccccc3)N(c3ccc(Cl)cc3)C2=O)cc(OC)c1OC` (stereo not given): the TGI in experiment [1] was more than 100 µM; in [2], more than 100 µM; in experiment [3] it was more than 100 µM; in experiment [4], more than 100 µM; in experiment [5], 24.2 µM; in [6] it was more than 63.3 µM. Moreover, the TGI in experiment [7], in [8], in experiment [9], in [10], in experiment [11] and in [12] was more than 100 µM throughout. In addition, the TGI in [13] was more than 100 µM; in experiment [14], more than 100 µM; in experiment [15], more than 44.8 µM; in experiment [16], more than 100 µM; in experiment [17], more than 100 µM; in experiment [18], more than 100 µM. The TGI in experiment [19] and in experiment [20] was more than 100 µM each time.

In the case of `O=c1oc2ccccc2cc1-c1nnc(-c2ccccc2)s1`, the TGI is more than 100 µM in experiment [1]; more than 100 µM in [2]; more than 100 µM in experiment [3]; more than 85.2 µM in experiment [4]; 12.9 µM in experiment [5]; more than 100 µM in experiment [6]. For the same compound, the TGI in [7], in experiment [8], in experiment [9], in experiment [10], in experiment [11] and in [12] was more than 100 µM each time. Also, the TGI was more than 57.1 µM in experiment [13]; more than 100 µM in experiment [14]; more than 100 µM in [15]; more than 100 µM in experiment [16]; more than 66.3 µM in experiment [17]; more than 100 µM in experiment [18]. Moreover, the TGI in experiment [19] was more than 100 µM; in experiment [20], 43.6 µM.

In the case of `COc1ccc(OC)c(NC(=O)C(=O)Nn2c(=S)[nH]c3ccccc3c2=O)c1`, the TGI in experiment [1], in [2], in experiment [3], in experiment [4], in experiment [5] and in [6] was more than 100 µM in each case. The TGI in experiment [7], in [8], in [9], in experiment [10], in experiment [11] and in experiment [12] was more than 100 µM throughout. For the same compound, the TGI in experiment [13], in experiment [14], in experiment [15], in [16], in [17] and in experiment [18] was more than 100 µM each time. For the same compound, the TGI in experiment [19] and in [20] was more than 100 µM each time.

In the case of `C=C1CC2(OC1=O)c1ccccc1C=Cc1ccccc12`, the TGI in [1] stood at 13.5 µM; in experiment [2], 10.7 µM; in experiment [3], 15.7 µM; in experiment [4], 4.37 µM; in [5] it was 3.37 µM; in experiment [6], 10 µM. Further, the TGI in [7] worked out at 9.71 µM; in [8], 9.96 µM; in experiment [9], 11.2 µM; in experiment [10], 23.3 µM; in [11], 6.54 µM; in experiment [12] it was 9.83 µM. Besides, the TGI in experiment [13] stood at 24.9 µM; in experiment [14], 25.4 µM; in experiment [15], 6.58 µM; in [16], 6.8 µM; in experiment [17], 15.9 µM; in experiment [18], 18.3 µM. In addition, the values for the TGI in experiment [19] and in [20] were 4.54 µM and 25 µM, respectively.

For `CC(C)C[C@H](NC(=O)CCc1ccccc1)B(O)O`, the TGI in experiment [1] was found to be 27 µM; in experiment [2], 62.7 µM; in experiment [3], 60.1 µM; in experiment [4], 43.9 µM; in experiment [5], 7.79 µM; in experiment [6], 24.7 µM. Moreover, the TGI was 32.9 µM in [7]; 72.9 µM in experiment [8]; 4.8 µM in experiment [9]; more than 100 µM in experiment [10]; more than 100 µM in [11]; more than 100 µM in experiment [12]. The TGI in [13] was 46.9 µM; in [14] it was 52.9 µM; in experiment [15] it was 7.33 µM; in experiment [16], 15.4 µM; in experiment [17] it was more than 100 µM; in experiment [18], more than 100 µM. Further, the results for the TGI in experiment [19] and in experiment [20] were 19.1 µM and 14 µM, respectively.

As for `CC(C)(C)OC(=O)NC(Cc1ccc([N+](=O)[O-])cc1)C(=O)NCC(=O)OCc1ccccc1` (stereo not given) (Boc-[ξPhe(4-NO2)]-Gly-OBn), the TGI is 42 µM in experiment [1]; 52.3 µM in experiment [2]; 45.4 µM in [3]; more than 100 µM in experiment [4]; 33.2 µM in experiment [5]; 37.6 µM in [6]. Also, the TGI in experiment [7] was 61.9 µM; in [8], 32 µM; in [9], 67.8 µM; in experiment [10], more than 100 µM; in experiment [11] it was more than 100 µM; in experiment [12] it was 48.4 µM. The TGI in experiment [13] was 36.7 µM; in experiment [14], 49.4 µM; in [15], 48.8 µM; in experiment [16], 61.3 µM; in experiment [17], more than 100 µM; in experiment [18] it was more than 100 µM. Besides, the TGI in experiment [19] and in [20] was more than 100 µM throughout.
